Assays:
[1] = xn = mol fraction of the nth substance listed; conditions: x2 = 0; for surface tension liquid-gas: Tensiometer with plate; for viscosity / mass density: 101 kPa, Liquid; for viscosity: Capillary tube (Ostwald / Ubbelohde) method; for mass density: Vibrating tube method
[2] = refractive index (Na D-line) (dimensionless); xn = mol fraction of the nth substance listed; conditions: 101 kPa, Liquid, Standard Abbe refractometry, x2 = 0

O [water] + CN1CCNCC1
Conditions	mass density, [1] [kg/m3]	refractive index, [2]	surface tension liquid-gas, [1] [mN/m]	viscosity, [1] [mPa·s]
293.15 K	–	1.333	72.09	–
298.15 K	–	1.333	–	0.894
303.15 K	–	1.332	71.27	0.8
308.15 K	–	1.331	70.44	–
313.15 K	–	1.331	69.66	0.656
318.15 K	–	1.331	68.83	–
323.15 K	–	1.329	67.95	–
325.15 K	988.03	–	–	0.55
328.15 K	–	1.328	–	–
333.15 K	983.2	1.327	66.23	0.47
343.15 K	977.78	–	–	0.409

Source: the NIST ThermoML archive (doi:10.1016/j.jct.2011.06.020)
